Measurements reported in US8110682B2, “Preparation and use of compounds as aspartyl protease inhibitors” (Schering Corporation, priority 2005, dated 2012).

Target: T1, sproBACE1 (soluble human BACE1) (Homo sapiens, UniProt P56817)
T1 construct: sBACE1, corresponding to amino acids 1-454; myc (C); His (C); made in house; host or cells: Sf9 insect cells (baculovirus), secreted into medium
Test: BACE-1 peptide hydrolysis assay (HTRF, APPsw substrate)
Format: biochemical
Conditions: 7 nM sproBACE1, pH 5.0, 30° C.
Text: A predicted soluble form of human BACE1 (sBACE1, corresponding to amino acids 1-454) is generated from the full length BACE1 cDNA (full length human BACE1 cDNA in pcDNA4/mycHisA construct; University of Toronto) by PCR using the advantage-GC cDNA PCR kit (Clontech, Palo Alto, Calif.). A HindIII/Pmel fragment from pcDNA4-sBACE1 myc/His is blunt ended using Klenow and subcloned into the Stu I site of pFASTBACI(A) (Invitrogen). A sBACE1mycHis recombinant bacmid is generated by transposition in DH10Bac cells(GIBCO/BRL). Subsequently, the sBACE1 mycHis bacmid construct is transfected into sf9 cells using CellFectin (Invitrogen, San Diego, Calif.) in order to generate recombinant baculovirus. […]
Proteins, are eluted from the Q-sepharose column with Buffer B (20 mM HEPES, pH 8.0, 500 mM NaCl). […] Peak protein fractions as determined by the Bradford Assay (Biorad, Calif.) are concentrated using a Centricon 30 concentrator (Millipore). sBACE1 purity is estimated to be ˜90% as assessed by SDS-PAGE and Commassie Blue staining. […]
IC50 determinations for inhibitors, (I), are determined by measuring the percent change of the relative fluorescence at 665 nm divided by the relative fluorescence at 620 nm, (665/620 ratio), in the presence of varying concentrations of I and a fixed concentration of enzyme and substrate.

T1 sequence (P56817 22-454): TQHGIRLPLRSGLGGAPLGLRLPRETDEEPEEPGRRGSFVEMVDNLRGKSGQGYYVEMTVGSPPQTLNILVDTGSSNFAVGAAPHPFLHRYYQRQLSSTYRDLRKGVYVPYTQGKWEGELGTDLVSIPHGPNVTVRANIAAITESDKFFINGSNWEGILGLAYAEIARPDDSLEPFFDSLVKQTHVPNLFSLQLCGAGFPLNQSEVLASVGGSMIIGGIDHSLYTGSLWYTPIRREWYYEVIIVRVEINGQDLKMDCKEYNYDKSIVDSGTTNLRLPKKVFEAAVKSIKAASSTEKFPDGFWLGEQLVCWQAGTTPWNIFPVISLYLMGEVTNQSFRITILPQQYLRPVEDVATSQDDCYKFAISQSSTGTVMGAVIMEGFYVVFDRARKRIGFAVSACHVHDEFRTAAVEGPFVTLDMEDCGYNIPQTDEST

SMILES: CN1C(=N)NC(C)(c2cccc(-c3cc(Cl)cc(Cl)c3)c2)N(C)C1=O (stereo not shown) [Example 7]
- Ki: 1.36 µM
